Experimental data taken from US11505543B2, “4-oxo-3,4-dihydroquinazoline compounds as inhibitors of human immunodeficiency virus replication” (VIIV HEALTHCARE UK (NO.5) LIMITED, priority 2018, dated 2022).

Assays:
[1] = Compound cytotoxicity, XTT-based colorimetric assay; assay type: cell-based; conditions: human, uninfected MT2 cells, day 4, XTT
In short: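 Run under the antiviral-assay protocol but without virus. Viability was read on day 4 and CC50 values were derived from the readout.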

[2] = test system: recombinant NL4-3 virus (nef section replaced with Renilla luciferase gene) in MT-2 cells; experiment: HIV cell culture assay (antiviral activity, luciferase readout); assay type: cell-based; conditions: Renilla, NL43, MT-2 cells infected for 4-5 days with recombinant NL4-3 Renilla luciferase virus, serial dilutions of compound
In short: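 EC50 was derived by median-effect curve fitting of luciferase activity. The signal comes from MT-2 cells infected for 4–5 days with 293T-produced NL4-3 reporter virus, nef partly replaced by Renilla luciferase, in the presence of serially diluted compound.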

Cn1nc(NS(C)(=O)=O)c2c(Cl)ccc(-n3c([C@H](Cc4cc(F)cc(F)c4)NC(=O)Cn4nc(C(F)F)c5c4C(F)(F)[C@@H]4C[C@H]54)nc4cc(-c5ccc(F)cc5F)ccc4c3=O)c21 [Example 187, N-((S)-1-(3-(4-chloro-1-methyl-3-(methylsulfonamido)-1H-indazol-7-yl)-7-(2,4-difluorophenyl)-4-oxo-3,4-dihydroquinazolin-2-yl)-2-(3,5-difluorophenyl)ethyl)-2-((3bS,4aR)-3-(difluoromethyl)-5,5-difluoro-3b,4,4a,5-tetrahydro-1H-cyclopropa[3,4]cyclopenta[1,2-c]pyrazol-1-yl)acetamide]
CC50 at 4 day [1]: > 1000 nM
EC50 [2]: 0.28 nM

Cc1cc(F)ccc1-c1ccc2c(=O)n(-c3ccc(Cl)c4c(NS(C)(=O)=O)nn(C)c34)c([C@H](Cc3cc(F)cc(F)c3)NC(=O)Cn3nc(C(F)F)c4c3C(F)(F)[C@@H]3C[C@H]43)nc2c1 [Example 188, N-((S)-1-(3-(4-chloro-1-methyl-3-(methylsulfonamido)-1H-indazol-7-yl)-7-(4-fluoro-2-methylphenyl)-4-oxo-3,4-dihydroquinazolin-2-yl)-2-(3,5-difluorophenyl)ethyl)-2-((3bS,4aR)-3-(difluoromethyl)-5,5-difluoro-3b,4,4a,5-tetrahydro-1H-cyclopropa[3,4]cyclopenta[1,2-c]pyrazol-1-yl)acetamide]
CC50 at 4 day [1]: > 1000 nM
EC50 [2]: 1.7 nM

O=C(Cn1nc(C(F)F)cc1C(F)F)N[C@@H](Cc1cc(F)cc(F)c1)c1nc2cc(-c3ncccn3)ccc2c(=O)n1-c1ccc(Cl)c2c(NS(=O)(=O)C3CC3)nn(CC(F)F)c12 [Example 189, (S)-2-(3,5-bis(difluoromethyl)-1H-pyrazol-1-yl)-N-(1-(3-(4-chloro-3-(cyclopropanesulfonamido)-1-(2,2-difluoroethyl)-1H-indazol-7-yl)-4-oxo-7-(pyrimidin-2-yl)-3,4-dihydroquinazolin-2-yl)-2-(3,5-difluorophenyl)ethyl)acetamide]
CC50 at 4 day [1]: > 500 nM
EC50 [2]: 1.3 nM

O=C(Cn1nc(C(F)F)cc1C(F)F)N[C@@H](Cc1cc(F)cc(F)c1)c1nc2cc(-c3ccccn3)ccc2c(=O)n1-c1ccc(Cl)c2c(NS(=O)(=O)C3CC3)nn(CC(F)F)c12 [Example 190, (S)-2-(3,5-bis(difluoromethyl)-1H-pyrazol-1-yl)-N-(1-(3-(4-chloro-3-(cyclopropanesulfonamido)-1-(2,2-difluoroethyl)-1H-indazol-7-yl)-4-oxo-7-(pyridin-2-yl)-3,4-dihydroquinazolin-2-yl)-2-(3,5-difluorophenyl)ethyl)acetamide]
CC50 at 4 day [1]: > 500 nM
EC50 [2]: 2.1 nM

Cc1nccnc1-c1ccc2c(=O)n(-c3ccc(Cl)c4c(NS(=O)(=O)C5CC5)nn(CC(F)F)c34)c([C@H](Cc3cc(F)cc(F)c3)NC(=O)Cn3nc(C(F)F)cc3C(F)F)nc2c1 [Example 191, (S)-2-(3,5-bis(difluoromethyl)-1H-pyrazol-1-yl)-N-(1-(3-(4-chloro-3-(cyclopropanesulfonamido)-1-(2,2-difluoroethyl)-1H-indazol-7-yl)-7-(3-methylpyrazin-2-yl)-4-oxo-3,4-dihydroquinazolin-2-yl)-2-(3,5-difluorophenyl)ethyl)acetamide]
CC50 at 4 day [1]: > 500 nM
EC50 [2]: 1.5 nM

Cn1nc(NS(C)(=O)=O)c2c(Cl)ccc(-n3c([C@H](Cc4cc(F)cc(F)c4)NC(=O)Cn4nc(C(F)F)c5c4C(F)(F)[C@@H]4C[C@H]54)nc4cc(-c5ccc(C(C)(C)C)cc5)ccc4c3=O)c21 [Example 192, N-((S)-1-(7-(4-(tert-butyl)phenyl)-3-(4-chloro-1-methyl-3-(methylsulfonamido)-1H-indazol-7-yl)-4-oxo-3,4-dihydroquinazolin-2-yl)-2-(3,5-difluorophenyl)ethyl)-2-((3bS,4aR)-3-(difluoromethyl)-5,5-difluoro-3b,4,4a,5-tetrahydro-1H-cyclopropa[3,4]cyclopenta[1,2-c]pyrazol-1-yl)acetamide]
CC50 at 4 day [1]: > 1000 nM
EC50 [2]: 5.1 nM
